Patent US20050187240A1, “Aaptamine and isoaaptamine and structural modifications thereof” (The Arizona Board of Regents, Acting for and on behalf of …, priority 2004, published 2005)
Values after ≈ are worked out from the molar mass of the structure shown. Where a name gives a salt, the structure may show the parent alone. Read-outs that look alike come from different tables or passages of the source.

How the values were obtained:
[1] = test system: Cryptococcus neoformans; assay: Broth microdilution susceptibility assay, Cryptococcus neoformans; assay type: cell-based
[2] = test system: Candida albicans; assay: Broth microdilution susceptibility assay, Candida albicans; assay type: cell-based
[3] = test system: Staphylococcus aureus; assay: Broth microdilution susceptibility assay, Staphylococcus aureus; assay type: cell-based
[4] = test system: Streptococcus pneumoniae; assay: Broth microdilution susceptibility assay, Streptococcus pneumoniae; assay type: cell-based
[5] = test system: Enterococcus faecalis; assay: Broth microdilution susceptibility assay, Enterococcus faecalis; assay type: cell-based
[6] = test system: Micrococcus luteus; assay: Broth microdilution susceptibility assay, Micrococcus luteus; assay type: cell-based
[7] = test system: Escherichia coli; assay: Broth microdilution susceptibility assay, Escherichia coli; assay type: cell-based
[8] = test system: Enterobacter cloacae; assay: Broth microdilution susceptibility assay, Enterobacter cloacae; assay type: cell-based
[9] = test system: Stenotrophomonas maltophilia; assay: Broth microdilution susceptibility assay, Stenotrophomonas maltophilia; assay type: cell-based; conditions: read-out: Range of minimum inhibitory concentration
[10] = test system: Neisseria gonorrhoeae; assay: Broth microdilution susceptibility assay, Neisseria gonorrhoeae; assay type: cell-based
[11] = test system: murine P388 lymphocytic leukemia cell line and a selection of human cancer cell lines; assay: Cancer cell growth inhibition, P388 and human cancer cell line panel (summary in words); assay type: cell-based
Description: (§1) Biology The cancer cell growth inhibitory properties were examined using the murine P388 lymphocytic leukemia cell line and a selection of human cancer cell lines.

[12] = test system: murine P388 lymphocytic leukemia cell line; assay: Cancer cell growth inhibition, murine P388 lymphocytic leukemia cell line; assay type: cell-based; conditions: Mus musculus
In short: (§2)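 Growth inhibition in murine P388 leukemia and human cancer cell line panels (Arizona State University minipanel and NCI 60-cell screen).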

[13] = test system: lung NCI-H460; assay: Cancer cell growth inhibition, lung NCI-H460; assay type: cell-based, human; conditions: Homo sapiens
In short: as §2

[14] = test system: colon KM 20L2; assay: Cancer cell growth inhibition, colon KM 20L2; assay type: cell-based, human; conditions: Homo sapiens
In short: as §2

[15] = test system: pancreas BXPC-3; assay: Cancer cell growth inhibition, pancreas BXPC-3; assay type: cell-based, human; conditions: Homo sapiens
Experimental: as §1
(§3) All of the synthetic products were evaluated against a minipanel of human cancer cell lines, the murine P388 lymphocytic leukemia cell line and a selection of microorganisms.

[16] = test system: breast MCF-7; assay: Cancer cell growth inhibition, breast MCF-7; assay type: cell-based, human; conditions: Homo sapiens
Experimental: as §1, §3

[17] = test system: CNS SF-268; assay: Cancer cell growth inhibition, CNS SF-268; assay type: cell-based, human; conditions: Homo sapiens
Experimental: as §1, §3

[18] = test system: prostrate DU-145; assay: Cancer cell growth inhibition, prostate DU-145; assay type: cell-based, human; conditions: Homo sapiens
Experimental: as §1, §3

[19] = Antimicrobial activity in the presence of human serum; assay type: cell-based
Description: The antimicrobial activity of phenols 15 and 18 in the presence of human serum was also investigated.

[20] = test system: tubulin; assay: Tubulin polymerization (assembly) inhibition; assay type: biochemical; conditions: b62 series; read-out: IC50 for inhibition of extent of tubulin assembly
Experimental: Only minimal inhibitory activity was observed. While compounds 15 and 8 did inhibit the rate of polymerization by over 50% at 40 μM (the highest concentration examined), an IC50 value for inhibition of assembly extent was obtained only for compound 18. […] Thus, it seems unlikely that the cytotoxic mechanism for these aaptamine analogs derives from an interaction with tubulin.
A number of the aaptamine derivatives whose synthesis is described here were examined for potential effects on tubulin assembly. These were compounds 2, 4, 5, 9a-c, and 10a-d. […] For comparison, in experiments performed contemporaneously, the potent colchicine site drug combretastatin A-4 yielded an IC50 value of about 2 μM.

[21] = Table 4, read-out: Range of minimum inhibitory concentration
[22] = Table 4, Stenotrophomonas maltophil
[23] = read-out: Range of minimum inhibitory concentration

COc1cc2ccnc3c2c(c1OC)N(C)C=C3 [Compound 14, 1-Methyl-8,9-dimethoxy-1H-benzo[de][1,6]naphthyridine trifluoromethane-sulfonate] showed an MIC [1, 21] of over 64 µg/mL, an MIC [2, 21] of over 64 µg/mL and an MIC [3, 21] of over 64 µg/mL. It also gave an MIC [4, 21] of 64 µg/mL (≈ 264 µM), an MIC [5, 21] of over 64 µg/mL and an MIC [6, 21] of over 64 µg/mL. It also gave an MIC [7, 21] of over 64 µg/mL, an MIC [8, 21] of over 64 µg/mL and an MIC [9, 22] of over 64 µg/mL. The MIC [10, 21] was over 64 µg/mL and the “cancer cell growth inhibitory activity” value [11] was “marginal activity”.
For Oc1cc2ccnc3c2c(c1O)NC=C3 [Compound 15, 8,9-Dihydroxy-1H-Benzo[de][1,6]naphthyridine hydrobromide], the IC50 ([12]; P388, Table 3, leukemia P-388, read-out: Cancer cell growth inhibitory ED50) was 0.12 µg/mL, the IC50 ([13]; Table 3, lung NCI-H460, read-out: Cancer cell growth inhibitory ED50) was 0.52 µg/mL and the IC50 ([14]; Table 3, colon KM 20L2, read-out: Cancer cell growth inhibitory ED50) was 0.3 µg/mL. The IC50 ([15]; Table 3, pancreas BXPC-3, read-out: Cancer cell growth inhibitory ED50) was 0.33 µg/mL, the IC50 ([16]; MCF7, Table 3, breast MCF-7, read-out: Cancer cell growth inhibitory ED50) was 0.31 µg/mL and the IC50 ([17]; Table 3, CNS SF-268, read-out: Cancer cell growth inhibitory ED50) was 0.8 µg/mL. It also gave an IC50 ([18]; Table 3, prostrate DU-145, read-out: Cancer cell growth inhibitory ED50) of 1.1 µg/mL, an MIC [1, 21] of 32 µg/mL and an MIC [2, 21] of 64 µg/mL. The MIC [3, 21] was 4 to 8 µg/mL, the MIC [4, 21] was 8 µg/mL and the MIC [5, 21] was 8 to 16 µg/mL. For the same compound, the MIC [6, 21] was 4 µg/mL, the MIC [7, 21] was 16 to 64 µg/mL and the MIC [8, 21] was over 64 µg/mL. For the same compound, the MIC [9, 22] was 32 µg/mL, the MIC [10, 21] was over 0.5 µg/mL and the “minimum inhibitory concentrations in the presence of human serum versus absence of serum” value [19] was “identical or one 2-fold dilution lower”.
COc1cc2ccnc3c2c(c1O)NC=C3 [Compound 18, 9-Demethylaaptamine hydrobromide] gave an IC50 ([12]; P388, read-out: Cancer cell growth inhibitory ED50) of 0.22 µg/mL, an IC50 ([13]; NCI-H460, read-out: Cancer cell growth inhibitory ED50) of 2 µg/mL and an IC50 ([14]; KM-20L2, read-out: Cancer cell growth inhibitory ED50) of 1.7 µg/mL. The IC50 ([15]; BXPC-3, read-out: Cancer cell growth inhibitory ED50) was 1.6 µg/mL, the IC50 ([16]; MCF7, read-out: Cancer cell growth inhibitory ED50) was 0.66 µg/mL and the IC50 ([17]; SF-268, read-out: Cancer cell growth inhibitory ED50) was 1.4 µg/mL. The IC50 ([18]; DU-145, read-out: Cancer cell growth inhibitory ED50) was 1.8 µg/mL, the MIC [1, 23] was 32 µg/mL and the MIC [2, 23] was 64 µg/mL. For the same compound, the MIC [3, 23] was 16 µg/mL, the MIC [4, 23] was 2 to 4 µg/mL and the MIC [5, 23] was 8 to 32 µg/mL. For the same compound, the MIC [6, 23] was 8 µg/mL, the MIC [7, 23] was 32 to 64 µg/mL and the MIC [8, 23] was over 64 µg/mL. It also gave an MIC [9] of over 64 µg/mL, an MIC [10, 23] of over 0.5 µg/mL and an IC50 [20] of 37 ± 4 µM. For the same compound, the “minimum inhibitory concentrations in the presence of human serum versus absence of serum” value [19] was “identical or one 2-fold dilution lower”.
